# Data as given in ChEMBL document CHEMBL4840350 (J Med Chem, 2021).
# Tests used:
# [1] = Stability in mouse liver S9 fraction assessed as extraction ratio at 3 uM measured upto 45 mins in presence of NADPH and UDPGA by LC-MS/MS analysis; assay type: ADME, subcellular
# [2] = Stability in mouse liver S9 fraction assessed as half life at 3 uM measured upto 45 mins in presence of NADPH and UDPGA by LC-MS/MS analysis; assay type: ADME, subcellular
# [3] = Elimination half-life in CD-1 mouse at 60 mg/kg, po administered as repeated dose measured at day 4 by LC-MS/MS analysis; assay type: ADME, organism-based; conditions: in vivo, time 4 day, read-out: beta t1/2 (converted)
# [4] = AUC(0 to 8 hrs) in CD-1 mouse at 60 mg/kg, po administered as repeated dose measured at day 1 by LC-MS/MS analysis; assay type: ADME, organism-based; set-up: route oral, dose 60 mg/kg, time 1 day; conditions: in vivo
# [5] = Dose normalized Cmax in CD-1 mouse at 3 mg/kg, po administered as single dose measured over 24 hrs by LC-MS/MS analysis; assay type: ADME, organism-based; conditions: in vivo
# [6] = Dose normalized AUC (0 to 8 hrs) in CD-1 mouse at 60 mg/kg, po administered as repeated dose measured at day 1 by LC-MS/MS analysis; assay type: ADME, organism-based; conditions: in vivo, 24 h, time 1 day
# [7] = Observed clearance in CD-1 mouse at 3 mg/kg, po administered as single dose measured over 24 hrs by LC-MS/MS analysis; assay type: ADME, organism-based; conditions: in vivo
# [8] = Cmax in CD-1 mouse at 60 mg/kg, po administered as repeated dose measured at day 4 by LC-MS/MS analysis; assay type: ADME, organism-based; set-up: route oral, dose 60 mg/kg, time 4 day; conditions: in vivo
# [9] = Dose normalized AUC (0 to 8 hrs) in CD-1 mouse at 60 mg/kg, po administered as repeated dose measured at day 4 by LC-MS/MS analysis; assay type: ADME, organism-based; conditions: in vivo, 96 h, time 4 day
# [10] = Dose normalized Cmax in CD-1 mouse at 60 mg/kg, po administered as repeated dose measured at day 4 by LC-MS/MS analysis; assay type: ADME, organism-based; conditions: in vivo, 96 h, time 4 day
# [11] = Cmax in CD-1 mouse at 60 mg/kg, po administered as repeated dose measured at day 1 by LC-MS/MS analysis; assay type: ADME, organism-based; set-up: route oral, time 1 day, dose 60 mg/kg; conditions: in vivo
# [12] = Drug uptake in po dosed CD-1 mouse xenografted with human HL-60 cells administered twice daily for 4 weeks and measured 1 to 8 hrs after post last dose; assay type: ADME, organism-based; conditions: in vivo, 672 h
# [13] = Dose normalized Cmax in CD-1 mouse at 60 mg/kg, po administered as repeated dose measured at day 1 by LC-MS/MS analysis; assay type: ADME, organism-based; conditions: in vivo, 24 h, time 1 day
# [14] = Apparent permeability of compound in human Caco2 cells at 10 uM incubated for 120 mins by LC-MS/MS analysis; assay type: ADME, cell-based; conditions: Caco-2
# [15] = AUC(0 to 8 hrs) in CD-1 mouse at 3 mg/kg, po administered as single dose measured over 24 hrs by LC-MS/MS analysis; assay type: ADME, organism-based; set-up: route oral, time 24 hrs, dose 3 mg/kg; conditions: in vivo
# [16] = AUC(0 to 8 hrs) in CD-1 mouse at 60 mg/kg, po administered as repeated dose measured at day 4 by LC-MS/MS analysis; assay type: ADME, organism-based; set-up: route oral, time 4 day, dose 60 mg/kg; conditions: in vivo
# [17] = Dose normalized AUC (0 to 8 hrs) in CD-1 mouse at 3 mg/kg, po administered as single dose measured over 24 hrs by LC-MS/MS analysis; assay type: ADME, organism-based; conditions: in vivo
structure (smiles),measurement,setting,value
Cc1cc(F)ccc1-c1cc2c(cn1)ncn2-c1ccc(OC(F)F)nc1,ERH,[1],0.09
Cc1cc(C#N)ccc1-c1cc2c(cn1)ncn2-c1ccc(OC(F)F)cc1,ERH,[1],0.02
COc1ccc(Cn2cnc3cnc(Nc4cccc(NC(C)=O)c4)cc32)cc1OC,"half-life at […], 3 µM",[2],0.7 h
Cc1cc(F)ccc1-c1cc2c(cn1)ncn2-c1ccc(OC(F)F)cc1,half-life,[3],8.1 h
same,AUC(0-t) at 24 h,[4],9.86 µg·h/mL
same,Cmax/dose,[5],0.043 µg/mL
same,AUC/dose,[6],164 ng·h/mL per mg/kg
same,CL/F,[7],7.74 L/h/kg
same,Cmax,[8],2.68 µg/mL
same,AUC/dose,[9],154 ng·h/mL per mg/kg
same,Cmax/dose,[10],0.045 µg/mL
same,Cmax,[11],2.21 µg/mL
same,Drug uptake,[12],Dose-Dependent Effect
same,Cmax/dose,[13],0.037 µg/mL
same,"Papp at 2 h, 10 µM",[14],140 nm/s
same,AUC(0-t) at 24 h,[15],0.363 µg·h/mL
same,AUC at 96 h,[16],9.22 µg·h/mL
same,AUC/dose,[17],121 ng·h/mL per mg/kg
